Like-named read-outs stand apart in the source and are kept apart here.
How the values were obtained:
[1] = molecular target: KIF18A (Homo sapiens (Human), UniProt Q8NI77); experiment: KIF18A ATPase activity under tubulin stimulation (ADP-Glo assay); type: biochemical; conditions: KIF18A 30 nM, ATP 150 μM, pig microtubules
[2] = test system: OVCAR-3 cells; experiment: OVCAR-3 cell proliferation (Cell Titer-Glo, 10 days); type: cell-based, human
Outline: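 400 cells per well were seeded onto pre-dispensed compound (final 0.12 nM to 10 μM) in RPMI-1640 with 20% FBS and insulin, then co-cultured for 10 days. Viability was read as Cell Titer-Glo luminescence, inhibition was taken against 0.1% DMSO control, and IC50 came from nonlinear concentration-inhibition regression.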

[3] = PK study in ICR mice; type: in vivo, mouse; conditions: plasma, route and dose not given
Experimental: 6 ICR mice (male/female) were divided into two groups, administered orally and intravenously, respectively, with 3 mice/group. The mice were fasted for 10-14 hours prior to dosing with free access to water.
The test compound was weighed according to the administration dose, and prepared into a dose formulation at appropriate concentrations (for rats and mice, intravenous and oral administration at a volume of 5 mL/kg and 10 mL/kg, respectively), wherein the intravenous injection was a clear solution, and the oral preparation was a clear solution or a homogeneous suspension.
Animals were dosed by intravenous injection and oral gavage, and blood samples were collected at 0.033, 0.083, 0.25, 0.5, 1, 2, 4, 8, and 24 h after intravenous administration and 0.083, 0.25, 0.5, 1, 2, 4, 6, 8, and 24 h after oral administration. Whole blood was centrifuged at 6800 g for 6 min at 4° C. and the top plasma was stored in a −80° C. freezer for later analysis.
The DMSO stock solution of the test compound was diluted into a series of working solutions with a methanol or an acetonitrile solution, and added to a blank plasma matrix, and standard curves were generated and quality control samples were prepared. An appropriate volume of the plasma sample was taken and a suitable multiple of methanol or acetonitrile containing an internal standard was added for protein precipitation based on the response. After centrifugation of all samples at 18000 g for 10 min at 4° C., an appropriate amount of supernatant was taken for LC-MS/MS injection analysis.
Drug concentration-time curves in plasma were plotted according to test concentrations, and pharmacokinetic parameters were calculated using noncompartmental analysis by WinNonlin software, including: half-life (T½), area under the concentration-time curve from time zero to time t (AUCO-t), clearance (CL), volume of distribution at steady state (Vss) and bioavailability (F), with some of the test results shown in Table 4.

[4] = test system: HT-29 cells; experiment: HT-29 cell proliferation (Cell Titer-Glo, 6 days); type: cell-based
Experimental: The inhibitory effect on the KIF18A target by the compounds of the present disclosure was evaluated by testing the inhibitory effect on proliferation of HT-29 cells by the compounds of the present disclosure.
HT-29 (ATCC, HTB-38) cells were cultured in McCoy's 5a complete medium (Gibco, 12330-031) containing 10% fetal bovine serum (Gibco, 10099-141C), 100 U penicillin and […] streptomycin (Gibco, 15140-122). The Promega kit Cell Titer-Glo (Promega: G7572) was used in this method for test. • 1. HT-29 cells were cultured in T75 cell flasks (Corning, 430641) and the medium was placed in a 37° C., 5% CO2 incubator. Cells were passaged when reaching a cell density of 70%-80%, approximately twice per week. • 2. To perform the experiment, the test compounds were dissolved in DMSO to prepare a 10 mM stock solution, and the test compounds were added to the 384-well cell test plate (Corning, 3765) at the predetermined concentration using ECHO. • 3. The cell culture flask was taken out, the medium was removed, and the cells were rinsed with PBS. Then 2 mL of trypsin (with 0.25% EDTA) was added, and the flask was placed in the incubator for digestion for 4 minutes. • 4. Digestion was stopped by adding 4 mL of complete medium and the cell suspension was transferred to a centrifuge tube and centrifuged at 1000 rpm for 4 minutes. • 5. The cells were resuspended in 6 mL of complete medium, followed by cell counting. The cell density was adjusted to 4,170 cells/mL, and the cells were added to a 384-well plate at 60 μL/well. • 6. The 384-well plate was centrifuged at 500 rpm for 1 minute, and then placed in a 37° C., 5% CO2 incubator for 6 days of cultivation. • 7. Six days later, the cell culture plate was equilibrated for 10 minutes at room temperature, 25 μL of Cell Titer-Glo was added to each well, and the mixture was shaken and mixed well and let stand for 5 minutes. The luminescence values for samples in various wells were read using a microplate reader in Luminescence mode.
The percentage of inhibition of cell proliferation by the test compound at each concentration was calculated by comparing with the values of the control group (0.3% DMSO). The IC50 values of the compounds were obtained by concentration-inhibition rate nonlinear regression analysis of the test compounds using GraphPad Prism 9.

[5] = both sexes, mouse, read-out: AUC
[6] = both sexes, mouse, read-out: Cmax

Chain of KIF18A (Q8NI77 whole entry): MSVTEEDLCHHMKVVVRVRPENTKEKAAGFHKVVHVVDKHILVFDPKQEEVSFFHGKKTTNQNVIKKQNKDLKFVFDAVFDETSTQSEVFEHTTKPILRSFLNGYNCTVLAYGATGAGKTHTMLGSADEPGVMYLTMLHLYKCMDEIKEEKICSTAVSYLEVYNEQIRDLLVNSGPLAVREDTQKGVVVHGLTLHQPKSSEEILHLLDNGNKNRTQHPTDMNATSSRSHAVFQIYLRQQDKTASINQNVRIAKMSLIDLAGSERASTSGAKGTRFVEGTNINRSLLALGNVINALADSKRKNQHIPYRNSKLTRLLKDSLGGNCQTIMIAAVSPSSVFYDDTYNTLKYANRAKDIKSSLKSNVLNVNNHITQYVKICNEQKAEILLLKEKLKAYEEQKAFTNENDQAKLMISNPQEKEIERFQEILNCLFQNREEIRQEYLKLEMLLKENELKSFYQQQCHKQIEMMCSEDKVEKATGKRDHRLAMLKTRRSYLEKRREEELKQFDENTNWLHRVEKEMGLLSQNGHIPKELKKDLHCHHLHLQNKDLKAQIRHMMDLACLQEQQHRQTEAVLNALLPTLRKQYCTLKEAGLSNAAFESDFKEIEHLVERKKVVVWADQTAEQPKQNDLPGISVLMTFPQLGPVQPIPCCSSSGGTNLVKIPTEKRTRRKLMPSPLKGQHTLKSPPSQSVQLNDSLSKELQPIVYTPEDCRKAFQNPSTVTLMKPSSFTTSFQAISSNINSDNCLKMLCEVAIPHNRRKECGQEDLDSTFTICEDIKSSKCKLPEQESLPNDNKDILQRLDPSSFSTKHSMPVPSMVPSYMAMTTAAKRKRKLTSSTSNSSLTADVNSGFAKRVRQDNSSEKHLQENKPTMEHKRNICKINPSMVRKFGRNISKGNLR
Chain of KIF18A (P02550 whole entry partner): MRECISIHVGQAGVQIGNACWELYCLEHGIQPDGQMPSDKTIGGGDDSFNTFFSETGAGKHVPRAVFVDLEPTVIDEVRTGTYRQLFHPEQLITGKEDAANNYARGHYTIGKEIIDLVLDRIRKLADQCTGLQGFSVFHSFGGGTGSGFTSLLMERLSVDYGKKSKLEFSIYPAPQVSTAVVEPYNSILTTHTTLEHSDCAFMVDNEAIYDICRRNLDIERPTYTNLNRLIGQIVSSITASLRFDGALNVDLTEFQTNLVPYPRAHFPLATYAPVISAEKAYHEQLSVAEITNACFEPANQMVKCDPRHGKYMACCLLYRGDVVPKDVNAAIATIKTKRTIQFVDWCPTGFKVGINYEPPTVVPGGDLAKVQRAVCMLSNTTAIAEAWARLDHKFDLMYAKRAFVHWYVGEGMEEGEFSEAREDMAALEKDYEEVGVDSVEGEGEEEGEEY
Chain of KIF18A (P02554 whole entry partner): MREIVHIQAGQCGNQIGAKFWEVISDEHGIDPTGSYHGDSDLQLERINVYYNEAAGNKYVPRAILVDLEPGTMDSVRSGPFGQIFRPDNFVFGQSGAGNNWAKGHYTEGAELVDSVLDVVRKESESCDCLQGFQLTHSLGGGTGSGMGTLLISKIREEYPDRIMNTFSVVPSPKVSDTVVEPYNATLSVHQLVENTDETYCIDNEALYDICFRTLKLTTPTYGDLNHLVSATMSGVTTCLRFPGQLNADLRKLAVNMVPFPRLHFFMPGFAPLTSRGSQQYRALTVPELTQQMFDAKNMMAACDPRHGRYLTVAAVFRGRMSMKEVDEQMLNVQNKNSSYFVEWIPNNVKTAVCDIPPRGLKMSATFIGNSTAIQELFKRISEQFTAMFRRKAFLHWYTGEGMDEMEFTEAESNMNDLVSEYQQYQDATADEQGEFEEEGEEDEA

Compound	IC50 [1] [nM]	IC50 ([2]; Homo sapiens, OVCAR-3, 240 h) [nM]	AUC [3, 5] [ng·h/mL]	Cmax [3, 6] [ng/mL]	IC50 [2] [nM]	IC50 [4] [nM]	IC50 ([4]; Homo sapiens, HT-29, 144 h) [nM]	AUC [3] [ng·h/mL]	Cmax [3] [ng/mL]
CNc1cc(NS(=O)(=O)CCO)cc(N2CCC3(CC2)CC3)c1C(=O)Nc1ccc(OC)c(N2CCC(F)(F)CC2)n1 [Example 491, N-(6-(4,4-difluoropiperidin-1-yl)-5-methoxypyridin-2-yl)-4-((2-hydroxyethyl)sulfonamido)-2-(methylamino)-6-(6-azaspiro[2.5]oct-6-yl)benzamide]	50 to 500	≤ 50	24800	2300	–	–	–	–	–
[2H]C([2H])([2H])OC1c2cc3c(NC(=O)c4ccc(NS(=O)(=O)CCO)cc4N4CCC5(CC4)CC5)cccc3n2CCC1(F)F (single isomer, unassigned) [Compound 385-P2, N-(8,8-difluoro-9-(methoxy-d3)-6,7,8,9-tetrahydropyridino[1,2-a]indol-1-yl)-4-((2-hydroxyethyl)sulfonamido)-2-(6-azaspiro[2.5]oct-6-yl)benzamide]	–	–	–	–	≤ 50	≤ 200	–	–	–
O=C(Nc1cccc2c1cc1n2CCC(F)(F)C1O)c1ccc(NS(=O)(=O)CCO)cc1N1CCC2(CC1)CC2 (single isomer, unassigned) [Compound 384-P2, N-(8,8-difluoro-9-hydroxy-6,7,8,9-tetrahydropyridino[1,2-a]indol-1-yl)-4-((2-hydroxyethyl)sulfonamido)-2-(6-azaspiro[2.5]oct-6-yl)benzamide]	50 to 500	–	–	–	≤ 50	≤ 200	–	–	–
O=C(Nc1cccc2c1nc1n2CCOC1)c1ccc(NS(=O)(=O)CCO)cc1N1CCC(=C(F)F)CC1 [Example 322, 2-(4-(difluoromethylene)piperidin-1-yl)-N-(3,4-dihydro-1H-benzo[4,5]imidazo[2,1-c][1,4]oxazin-9-yl)-4-((2-hydroxyethyl)sulfonamido)benzamide]	≤ 50	≤ 50	12400	2420	–	–	–	–	–
O=C(Nc1cccc2c1cc1n2CCC(F)(F)C1O)c1ccc(NS(=O)(=O)CCO)cc1N1CCC2(CC1)CC2 (single isomer, unassigned) [Compound 384-P1, N-(8,8-difluoro-9-hydroxy-6,7,8,9-tetrahydropyridino[1,2-a]indol-1-yl)-4-((2-hydroxyethyl)sulfonamido)-2-(6-azaspiro[2.5]oct-6-yl)benzamide]	≤ 50	≤ 50	1290	366	–	–	≤ 200	–	–
[2H]C([2H])([2H])OC1c2cc3c(NC(=O)c4ccc(NS(=O)(=O)CCO)cc4N4CCC(=C(F)F)CC4)cccc3n2CCC1(F)F (stereo not drawn) [Compound 386, N-(8,8-difluoro-9-(methoxy-d3)-6,7,8,9-tetrahydropyridino[1,2-a]indol-1-yl)-2-(4-(difluoromethylene)piperidin-1-yl)-4-((2-hydroxyethyl)sulfonamido)benzamide]	50 to 500	–	–	–	50 to 500	–	200 to 1000	–	–
[2H]C([2H])([2H])OC1c2cc3c(NC(=O)c4ccc(NS(=O)(=O)CCO)cc4N4CCC5(CC4)CC5)cccc3n2CCC1(F)F (stereo not drawn) [Compound 385, N-(8,8-difluoro-9-(methoxy-d3)-6,7,8,9-tetrahydropyridino[1,2-a]indol-1-yl)-4-((2-hydroxyethyl)sulfonamido)-2-(6-azaspiro[2.5]oct-6-yl)benzamide]	50 to 500	–	–	–	≤ 50	–	≤ 200	–	–
CC1(C)OCCn2c1cc1c(NC(=O)c3ccc(NS(=O)(=O)CCO)cc3N3CCC4(CC3)CC4)cccc12 [Compound 396, N-(1,1-dimethyl-3,4-dihydro-1H-[1,4]oxazino[4,3-a]indol-9-yl)-4-((2-hydroxyethyl)sulfonamido)-2-(6-azaspiro[2.5]octan-6-yl)benzamide]	50 to 500	≤ 50	–	–	–	–	≤ 200	–	–
O=C(Nc1ccc(OC(F)F)c2c1cc1n2CCC(F)(F)C1)c1ccc(NS(=O)(=O)CCO)cc1N1CCC2(CC1)CC2 [Example 583]	50 to 500	≤ 50	43300	4410	–	–	–	–	–
O=C(Nc1ccnc2c1cc1n2CCC(F)(F)C1)c1ccc(NS(=O)(=O)CCO)cc1N1CCC2(CC1)CC2 [Example 380, N-(7,7-difluoro-6,7,8,9-tetrahydropyridin[3,2-b]indolizin-4-yl)-4-((2-hydroxyethyl)sulfonamido)-2-(6-azaspiro[2.5]oct-6-yl)benzamide]	≤ 50	–	–	–	≤ 50	≤ 200	–	–	–
O=C(Nc1ccc(F)c2c1nc1n2CCOC1)c1ccc(NS(=O)(=O)CCO)cc1N1CCC(=C(F)F)CC1 [Example 323, 2-(4-(difluoromethylene)piperidin-1-yl)-N-(6-fluoro-3,4-dihydro-1H-benzo[4,5]imidazo[2,1-c][1,4]oxazin-9-yl)-4-((2-hydroxyethyl)sulfonamide)benzamide]	≤ 50	–	–	–	≤ 50	–	–	4113	762
CC1=CCCn2c1cc1c(NC(=O)c3ccc(NS(=O)(=O)CCO)cc3N3CCC4(CC3)CC4)cccc12 [Compound 410, 4-(2-hydroxyethyl)sulfonamido-N-(9-methyl-6,7-dihydropyridino[1,2-a]indol-1-yl)-2-(6-azaspiro[2.5]octan-6-yl)benzamide]	50 to 500	≤ 50	16400	2790	–	–	≤ 200	–	–
O=C(Nc1ccnc2c1cc1n2CCC(F)(F)C1)c1ccc(NS(=O)(=O)CCO)cc1N1CCC(=C(F)F)CC1 [Example 376]	≤ 50	–	–	–	≤ 50	200 to 1000	–	–	–
O=C(Nc1cccc2c1cc1n2CC2(CC2)OC1)c1ccc(NS(=O)(=O)CCO)cc1N1CCC(=C(F)F)CC1 [Example 485, 2-(4-(difluoromethylene)piperidin-1-yl)-4-((2-hydroxyethyl)sulfonamido)-N-(1′H,4′H-spiro[cyclopropane-1,3′-[1,4]oxazino[4,3-a]indole]-9′-yl)benzamide]	≤ 50	50 to 500	33300	3740	–	–	200 to 1000	–	–
[2H]C([2H])([2H])OC1c2cc3c(NC(=O)c4ccc(NS(=O)(=O)CCO)cc4N4CCC(=C(F)F)CC4)cccc3n2CCC1(F)F (single isomer, unassigned) [Compound 386-P2, N-(8,8-difluoro-9-(methoxy-d3)-6,7,8,9-tetrahydropyridino[1,2-a]indol-1-yl)-2-(4-(difluoromethylene)piperidin-1-yl)-4-((2-hydroxyethyl)sulfonamido)benzamide]	≤ 50	–	–	–	50 to 500	≤ 200	–	–	–

From patent US20260070887A1 (Shenzhen Zhongge Biological Technology Co., Ltd., priority 2022, published 2026)
